Results taken from patent US9974795B2, “Anticancer agent composition” (CARNA BIOSCIENCES, INC., priority 2014, dated 2018).

Assays:
Colo205 cells = assay: FACS of PI-stained cells: cell cycle and rate of cell death (SubG1), Colo205; format: cell-based; settings: for cell death induced by Cdc7 inhibitor on coadministration with Wee1 inhibitor MK-1775: Cdc7 inhibitor 0.1 μM, MK-1775 0.25, 0.5, 0.75 μM, FIG. 1 / FIG. 5; for cell death on coadministration with Chk1 inhibitor SCH900776: Cdc7 inhibitor 0.3 μM or 0.1 μM, SCH900776 3.3 μM, FIG. 9; for cell death on coadministration with Chk1 inhibitor UCN-01 / cell death on coadministration with Hsp90 inhibitor geldanamycin: Cdc7 inhibitor 0.1, 0.03 or 0.3 μM; for cell death on coadministration with Chk1 inhibitor UCN-01: UCN-01 333 nM, FIG. 10; for cell death on coadministration with Hsp90 inhibitor geldanamycin: geldanamycin 10 nM or 33 nM, FIG. 11
Method: (§1) COLO205 (RCB2127, RIKEN BRC) was cultured in a 10-cm dish using an RPMI-1640 medium (Sigma-Aldrich Corp., R8758) supplemented with 10% FCS (Equitech-Bio, Inc.) and 5% penicillin-streptomycin (GIBCO/Thermo Fisher Scientific, Inc., 15140). The medium was removed from the cells in a well grown state (70 to 90% confluent), and the cells were dissociated from the dish by treatment with 2 mL of trypsin (TrypL Express, manufactured by GIBCO/Thermo Fisher Scientific, Inc.) and recovered into the same medium as above.
(§2) The recovered cells of each line were seeded at 2.5×10^5 cells/ml/well to a 6-well plate (BD Falcon, catalog No. 353046). The cells were cultured overnight in a 5% CO2 incubator. On the next day, 500 μl of a medium supplemented with 1.5 μl of a stock solution having a 1000-fold concentration of each compound to be added was added to each well, […]
(§3) After the reaction of the cells with the compound for 48 to 72 hours, the cells were dissociated from the well by treatment with trypsin (TrypL Express, manufactured by GIBCO/Thermo Fisher Scientific, Inc.) and washed with DPBS. Then, 1 ml of cold ethanol was added thereto, and the cells were stored at −30° C. until staining. The cells were washed with DPBS once before staining and left standing with a propidium iodide (PI) solution at room temperature for 30 minutes or longer in the dark. The cells stained with PI were studied for the cell cycle and the rate of cell death indicated by SubG1 using FACS.

[1] = test system: Panc-1 cells (pancreatic cancer cell line); assay: FACS of PI-stained cells: cell death, Panc-1 cells; format: cell-based; settings: Cdc7 inhibitor 0.1 μM, MK-1775 0.5 and 0.75 μM, FIG. 3
Method: as §1, with “Panc-1 (ATCC, CRL-1469)” for “COLO205 (RCB2127, RIKEN BRC)”, “a D-MEM” for “an RPMI-1640”, “D5796)” for “R8758)”
as §2
as §3, with “The cells stained with PI were studied for the cell cycle and the rate of cell death indicated by SubG1 using FACS.” left out

NHDF cells = assay: FACS of PI-stained cells: cell death, normal NHDF cells; format: cell-based; settings: Cdc7 inhibitor 0.1 μM, MK-1775 0.25, 0.5, 0.75 μM, FIG. 2
Method: NHDF cells (Cryo NHDF-NeoCC-2509, manufactured by Sanko Junyaku Co., Ltd.) were cultured in a 10-cm dish using a medium (Brett Kit FGM2, CLCC-3132). The medium was removed from the NHDF cells in a well grown state (70 to 90% confluent), and the cells were washed with 5 mL of HEPES-buffered saline in a subculture reagent set (CLCC-5034, manufactured by Sanko Junyaku Co., Ltd.).
After removal of the HEPES-buffered saline, the whole dish was covered with 3 mL of a trypsin/EDTA solution included in the set. The cells were dissociated from the dish by giving a small impact on the side of the dish with taps of a hand. Then, 3 mL of a trypsin-neutralizing solution included in the set was added to the cells, which were then recovered.
as §2
After the reaction of the cells with the compound for 48 to 72 hours, the cells were dissociated from the well by treatment with trypsin (TrypL Express, manufactured by GIBCO/Thermo Fisher Scientific, Inc.) and washed with DPBS. […]

MDA-MB-231 cells = assay: Cell growth inhibition (number of nuclei, Hoechst 33342) with BLISS score evaluation; format: cell-based, human; settings: 72 hours, Cdc7 inhibitor 19.5 to 10000 nM, MK-1775 7.81 to 1000 nM, FIGS. 12-15
Method: The BLISS scoring is a criterion often used in the evaluation of the synergistic effect of drugs used in combination (Borisy et al., Proc. Natl. Acad. Sci. USA. 100 (13): 7977-7982 (2003); and Buck et al., Mol. Cancer. Ther. 5 (11) (2006)). This BLISS scoring was used to analyze the effect of the Cdc7 inhibitor and the Wee1 inhibitor used in combination on the inhibition of cancer cell growth. […]
After the addition of the compounds, the cells were incubated for 72 hours. […] Then, the number of nuclei (the number of cells) was measured using a cell image analyzer (ArrayScan VTI HCS Reader, Thermo Fischer Scientific, Inc.) (Ex/Em=350/461 nm).
After 72 hours, the average number from the control wells was used as the number of untreated control cells (Gunt72), and the average number from the compound-treated wells was used as the number of compound-treated cells (G72). Wells in which the medium was merely replaced 24 hours after the cell inoculation were counted as an initial value and used as the initial number of cells (G0). […]
Assuming that the first test compound and the second test compound each acted as a single agent (i.e., the rate of cell growth when the concentration of either of the compounds was 0), the theoretical BLISS independence (BLISSin) of each well can be calculated according to the following expression: BLISSin=G(First test compound)×G(Second test compound) […]

[2] = Colo205, Cdc7 inhibitor 0.1 μM or 0.3 μM, MK-1775 0.5 μM, FIG. 8

CC(C)OC(=O)C1=C(NN2CCOCC2)OC(=Cc2c[nH]c3ncccc23)C1=O [compound (I-A), isopropyl 5-[(1H-pyrrolo[2,3-b]pyridin-3-yl)methylene]-2-(morpholinoamino)-4-oxo-4,5-dihydrofuran-3-carboxylate]
cell death induced by Cdc7 inhibitor on coadministration with Wee1 inhibitor MK-1775 (Colo205 cells; Colo205): synergistically increased

C=CCn1c(=O)c2cnc(Nc3ccc(N4CCN(C)CC4)cc3)nc2n1-c1cccc(C(C)(C)O)n1 [MK-1775, reference compound]
proportion of cells in the M-phase (Colo205 cells; MK-1775 0.1 to 1 μM): increased

CC(C)OC(=O)C1=C(NN2CCN(CC(F)(F)F)CC2)O/C(=C\c2c[nH]c3ncccc23)C1=O [compound (I-C), isopropyl 5-[(1H-pyrrolo[2,3-b]pyridin-3-yl)methylene]-4-oxo-2-{[4-(2,2,2-trifluoroethyl)piperazinyl]amino}-4,5-dihydrofuran-3-carboxylate]
cell death on coadministration with MK-1775 (Colo205 cells; Colo205, compound (I-C) 0.1 μM or 0.3 μM, FIG. 7): synergistically increased

O=C1NCCc2[nH]c(-c3ccncc3)cc21 [compound (I-F), 2-(pyridin-4-yl)-1,5,6,7-tetrahydro-4H-pyrrolo[3,2-c]pyridinone, reference compound]
cell death on coadministration with MK-1775 (Colo205 cells; [2]): synergistically increased

CCOC(=O)C1=C(N2CCc3ccc(OC)cc3C2)O/C(=C\c2c[nH]c3ncccc23)C1=O [compound (I-B), ethyl 5-[(1H-pyrrolo[2,3-b]pyridin-3-yl)methylene]-2-(7-methoxy-3,4-dihydroisoquinolin-2(1H)-yl)-4-oxo-4,5-dihydrofuran-3-carboxylate]
cell death on coadministration with MK-1775 (Colo205 cells; Colo205, compound (I-B) 0.3 μM, FIG. 6): synergistically increased

CCOC(=O)C1=C(NN2CCN(CC(F)(F)F)CC2)O/C(=C\c2c[nH]c3ncccc23)C1=O [compound (I-D), ethyl 5-[(1H-pyrrolo[2,3-b]pyridin-3-yl)methylene]-4-oxo-2-{[4-(2,2,2-trifluoroethyl)piperazinyl]amino}-4,5-dihydrofuran-3-carboxylate]
cell death induced by Cdc7 inhibitor on coadministration with Wee1 inhibitor MK-1775 (Colo205 cells; Colo205): synergistically increased | cell death on coadministration with Chk1 inhibitor SCH900776 (Colo205 cells; Colo205): synergistically increased | cell death on coadministration with Chk1 inhibitor UCN-01 (Colo205 cells; Colo205): synergistically increased | cell death on coadministration with Hsp90 inhibitor geldanamycin (Colo205 cells; Colo205): synergistically increased | cell death induced by Cdc7 inhibitor on coadministration with MK-1775 [1]: synergistically increased | cytotoxicity to normal cells on addition of MK-1775 (NHDF cells): no increase | inhibition of cancer cell growth in combined use with MK-1775 (BLISS score) (MDA-MB-231 cells): synergistically inhibits

O=C(OCC1CC1)C1=C(NN2CCOCC2)O/C(=C\c2c[nH]c3ncccc23)C1=O [compound (I-E), cyclopropylmethyl 5-[(1H-pyrrolo[2,3-b]pyridin-3-yl)methylene]-2-(morpholinoamino)-4-oxo-4,5-dihydrofuran-3-carboxylate]
cell death induced by Cdc7 inhibitor on coadministration with Wee1 inhibitor MK-1775 (Colo205 cells; Colo205): synergistically increased | cell death on coadministration with Chk1 inhibitor SCH900776 (Colo205 cells; Colo205): synergistically increased | cell death on coadministration with Chk1 inhibitor UCN-01 (Colo205 cells; Colo205): synergistically increased | cell death on coadministration with Hsp90 inhibitor geldanamycin (Colo205 cells; Colo205): synergistically increased | cell death on coadministration with MK-1775, varied composition (Colo205 cells; Colo205, compound (I-E):MK-1775 = 1:100 to 3:1 (ratio by μM), FIG. 4): sufficiently synergistically increased | cell death induced by Cdc7 inhibitor on coadministration with MK-1775 [1]: synergistically increased | cytotoxicity to normal cells on addition of MK-1775 (NHDF cells): no increase | inhibition of cancer cell growth in combined use with MK-1775 (BLISS score) (MDA-MB-231 cells): synergistically inhibits

NC(=O)c1cc(-c2ccnc(N)n2)[nH]c1-c1ccc(Cl)cc1Cl [compound (I-G), 5-(2-amino-pyrimidin-4-yl)-2-(2,4-dichloro-phenyl)-1H-pyrrole-3-carboxylic acid amide, reference compound]
cell death on coadministration with MK-1775 (Colo205 cells; [2]): synergistically increased
